Here are results for 24 compounds from patent publication US20130225548A1, “Pyridine Derivative and Medicinal Agent” (NIPPON SHINYAKU CO., LTD., priority 2010, published 2013).

Where a name gives a salt, the structure may show the parent alone.

For this experiment, the target named is T1, Syk tyrosine kinase (Homo sapiens, UniProt P43405).
T1 construct: purchased Carna Biosciences, Inc
The experiment is described as follows: Test for Syk tyrosine kinase inhibitory activity (ELISA). It counts as biochemical. As to conditions: Syk tyrosine kinase (Carna Biosciences), 25 μM ATP in substrate solution, 30° C. 1 hour, n=2; read-out: Evaluation (IC50, concentration inhibiting the tyrosine kinase activity at 50%). The procedure: Test Example 1: Test for Syk Tyrosine Kinase Inhibitory Activity
1. Preparation of Test Substance
A test substance was prepared at 10 mM in dimethyl sulfoxide (DMSO), and further diluted with DMSO to concentrations of 1000, 300, 100, 30, 10, 3, 1, 0.3, 0.1, 0.03, and 0.01 μM. The resulting solutions were further diluted to 20-fold with an assay buffer, whereby test substance solutions were prepared. As a negative control, a solution obtained by diluting DMSO to 20-fold with an assay buffer was used. As the assay buffer, a buffer containing 15 mM Tris-HCl (pH 7.5), 0.01 (v/v) % Tween-20, and 1 mM dithiothreitol was used.
2. Measurement of Syk Tyrosine Kinase Inhibitory Activity
The activity was measured using the ELISA method. Each of the test substance solutions was added to a streptavidine-coated 96-well place (DELFIA Strip Plate 8×12 wells, PerkinElmer Co., Ltd,) at 10 μL per well (n=2), and a substrate solution (625 nM biotinylated peptide substrate, 25 μM ATP, 25 mM MgCl2, 15 mM Tris-HCl (pH 7.5), 0.01 (v/v) % Tween-20, 1 mM dithiothreitol) was added to the plate at 20 μL per well, and the resulting mixture was stirred. Finally, Syk tyrosine kinase (Carna Biosciences, Inc.) (previously diluted to 0.025 nM with the assay buffer) was added to the plate at 20 μL per well, and the resulting mixture was stirred. A reaction was allowed to proceed at 30° C. for 1 hour. After the plate was washed 4 times with a washing buffer (50 mM Tris-HCl (pH 7.5, 150 mM NaCl, 0.02 (v/v) % Tween-20), a blocking buffer (0.1% bovine serum albumin, 50 mM Tris-HCl (pH 7.5), 150 mM NaCl, 0.02 (v/v) % Tween-20) was added to the plate at 150 μL per well, and blocking was performed at 30° C. for 30 minutes. Then, the blocking buffer was removed, and a horseradish peroxidase-labeled anti-phosphorylated tyrosine antibody (BD Biosciences, Inc.) (previously diluted to 10000-fold with the blocking buffer) was added to the plate at 100 μL per well, and the plate was incubated at 30° C. for 30 minutes. After the plate was washed 4 times with the washing buffer, a 3,3′,5,5′-tetramethylbenzidine solution (Sigma-Aldrich Co., Ltd.) was added to the plate at 100 μL per well to develop the color for 10 minutes. The reaction was stopped by adding 0.1 M sulfuric acid at 100 μL per well. The absorbance at 450 nm was measured using a microplate reader (Multiskan F C, Thermo Fisher Scientific K,K.).
3. Analysis of Measurement Results
A non-linear regression analysis was performed for the measured absorbance using the SAS system (SAS institute. Inc.), and a concentration of each of the test substances: inhibiting the tyrosine kinase activity at 50% (IC50 ) was calculated. A case where IC50 is […] was evaluated as ***, a case where IC50 is 5 nM or more and less than 50 nM was evaluated as **, and a case where IC50 is 50 nM or more and less than 500 nM was evaluated as *, which are shown in the column of evaluation item.
Background: ELISA stands for enzyme-linked immunosorbent assay.
As for `N#Cc1ccnc(Nc2cc(C3CC3)cc(-c3ccc4[nH]ncc4c3)n2)c1` [Example 56, 2-{[4-cyclopropyl-6-(1H-indazol-5-yl)pyridin-2-yl]amino}pyridine-4-carbonitrile hydrochloride], the IC50 was in the range of 5 to 50 nM.

With `N#Cc1ccnc(Nc2cc(C3CC3)cc(-c3ccc(N4CCN(C(N)=S)CC4)nc3)n2)c1` [Example 46, 4-{6-[(4-cyanopyridin-2-yl)amino]-4-cyclopropyl-2,3′-bipyridin-6′-yl}piperazine-1-carbothioamide hydrochloride], the IC50 is 50 to 500 nM. With `N#Cc1ccnc(Nc2cc(C3CC3)cc(-c3cncc(CN4CCN(C(N)=O)CC4)c3)n2)c1` [Example 83, 4-({6-[(4-cyanopyridin-2-yl)amino]-4-cyclopropyl-2,3′-bipyridin-5′-yl}methyl)piperazine-1-carboxamide hydrochloride], the IC50 was in the range of 5 to 50 nM.

Turning to `N#Cc1ccnc(Nc2cc(C3CC3)cc(-c3cncc(NC4CCNCC4)c3)n2)c1` [Example 85, 2-{[4-cyclopropyl-5′-(piperidin-4-ylamino)-2,3′-bipyridin-6-yl]amino}pyridine-4-carbonitrile hydrochloride], the IC50 is under 5 nM.

On to `CNC(=O)C1CCCN1c1ccc(-c2cc(C3CC3)cc(Nc3cc(C#N)ccn3)n2)cn1` (stereo not drawn) [Example 39, 1-{6-[(4-cyanopyridin-2-yl)amino]-4-cyclopropyl-2,3′-bipyridin-6′-yl}-N-methylpyrrolidine-2-carboxamide hydrochloride], for which the IC50 fell in the range of 50 to 500 nM. The result for `N#Cc1ccnc(Nc2cc(C3CC3)cc(-c3ccc(N4CCC(N)CC4)nc3)n2)c1` [Example 28, 2-{[6′-(4-aminopiperidin-1-yl)-4-cyclopropyl-2,3′-bipyridin-6-yl]amino}pyridine-4-carbonitrile dihydrochloride] reads 5 to 50 nM; that for `N#Cc1ccnc(Nc2cc(C3CC3)cc(-c3ccc4nc([C@H]5CC[C@H](O)CC5)[nH]c4c3)n2)c1` [Example 175, 2-({4-cyclopropyl-6-[2-(trans-4-hydroxycyclohexyl)-1H-benzimidazol-6-yl]pyridin-2-yl}amino)pyridine-4-carbonitrile hydrochloride], 50 to 500 nM. With `N#Cc1ccnc(Nc2cc(C3CC3)cc(-c3ccc4ncn([C@H]5CC[C@H](O)CC5)c4c3)n2)c1` [Example 122, 2-({4-cyclopropyl-6-[1-(trans-4-hydroxycyclohexyl)-1H-benzimidazol-6-yl]pyridin-2-yl}amino)pyridine-4-carbonitrile hydrochloride] the figure was under 5 nM. The result for `CC(=O)N1CCCN(c2cncc(-c3cc(C4CC4)cc(Nc4cc(C#N)ccn4)n3)c2)CC1` [Example 110, 2-{[5′-(4-acetyl-1,4-diazepan-1-yl)-4-cyclopropyl-2,3′-bipyridin-6-yl]amino}pyridine-4-carbonitrile hydrochloride] reads 50 to 500 nM; that for `N#Cc1ccnc(Nc2cc(C3CC3)cc(-c3ccc(N4CCC(C(N)=O)(c5ccc(F)cc5)CC4)nc3)n2)c1` [Example 62, 1-{6-[(4-cyanopyridin-2-yl)amino]-4-cyclopropyl-2,3′-bipyridin-6′-yl}-4-(4-fluorophenyl)piperidine-4-carboxamide hydrochloride], 5 to 50 nM; that for `N#Cc1ccnc(Nc2cc(C3CC3)cc(-c3ccc4ncn(C5CCC(F)(F)CC5)c4c3)n2)c1` [Example 136, 2-({4-cyclopropyl-6-[1-(4,4-difluorocyclohexyl)-1H-benzimidazol-6-yl]pyridine-2-yl}amino)pyridine-4-carbonitrile hydrochloride], 50 to 500 nM. Turning to `N#Cc1ccnc(Nc2cc(C3CC3)cc(-c3ccnc(CN4CCNCC4)c3)n2)c1` [Example 86, 2-{[4-cyclopropyl-2′-(piperazin-1-ylmethyl)-2,4′-bipyridin-6-yl]amino}pyridine-4-carbonitrile hydrochloride], the IC50 is 5 to 50 nM. With `CC(C)NC(=O)N1CCN(c2ccc(-c3cc(C4CC4)cc(Nc4cc(C#N)ccn4)n3)cn2)CC1` [Example 44, 4-{6-[(4-cyanopyridin-2-yl)amino]-4-cyclopropyl-2,3′-bipyridin-6′-yl}-N-(propan-2-yl)piperazine-1-carboxamide hydrochloride] the figure was 50 to 500 nM; with `CCOC(=O)CCn1cnc2cc(-c3cc(C4CC4)cc(Nc4cc(C#N)ccn4)n3)ccc21` [Example 123, ethyl 3-(5-{6-[(4-cyanopyridin-2-yl)amino]-4-cyclopropylpyridin-2-yl}-1H-benzimidazol-1-yl)propanonate hydrochloride], 50 to 500 nM; with `N#Cc1ccnc(Nc2cc(C3CC3)cc(-c3cncc(OC4CCNCC4)c3)n2)c1` [Example 96, 2-([4-cyclopropyl-5′-(piperidin-4-yloxy)-2,3′-bipyridin-6-yl]amino)pyridine-4-carbonitrile hydrochloride], under 5 nM. With `CC(C)(CO)Cn1cnc2cc(-c3cc(C4CC4)cc(Nc4cc(C#N)ccn4)n3)ccc21` [Example 119, 2-({4-cyclopropyl-6-[1-(3-hydroxy-2,2-dimethylpropyl)-1H-benzimidazol-5-yl]pyridin-2-yl}amino)pyridine-4-carbonitrile hydrochloride] the figure was 50 to 500 nM; with `N#Cc1ccnc(Nc2cc(C3CC3)cc(-c3ccc4ccnc(N5CCNC5=O)c4c3)n2)c1` [Example 171, 2-({4-cyclopropyl-6-[1-(2-oxo-imidazolidin-1-yl)isoquinolin-7-yl]pyridin-2-yl}amino)pyridine-4-carbonitrile hydrochloride], 5 to 50 nM; with `N#Cc1ccnc(Nc2cc(C3CC3)cc(-c3ccc(N4CCNC(=O)C4)nc3)n2)c1` [Example 5, 2-{[4-cyclopropyl-6′-(3-oxopiperazin-1-yl)-2,3′-bipyridin-6-yl]amino}pyridine-4-carbonitrile hydrochloride], 5 to 50 nM. With `N#Cc1ccnc(Nc2cc(C3CC3)cc(-c3ccc4ncn(C(CO)CO)c4c3)n2)c1` [Example 143, 2-({4-cyclopropyl-6-[1-(1,3-dihydroxypropan-2-yl)-1H-benzimidazol-6-yl]pyridin-2-yl}amino)pyridine-4-carbonitrile hydrochloride] the figure was 5 to 50 nM. As for `N#Cc1ccnc(Nc2cc(C3CC3)cc(-c3cncc(N[C@H]4CCNC4)c3)n2)c1` [Example 89, 2-{(4-cyclopropyl-5′-[(3S)-pyrrolidin-3-ylamino]-2,3′-bipyridin-6-yl}amino)pyridine-4-carbonitrile hydrochloride], the IC50 is under 5 nM. The result for `N#Cc1ccnc(Nc2cc(C3CC3)cc(-c3ccc4ncn(C5CCCC5O)c4c3)n2)c1` (stereo not drawn) [Example 140, 2-[(4-cyclopropyl-6-{1-[trans-2-hydroxycyclopenyl]-1H-benzimidazol-6-yl}pyridine-2-yl)amino]pyridine-4-carbonitrile hydrochloride] reads 5 to 50 nM; that for `N#Cc1ccnc(Nc2cc(C3CC3)cc(-c3ccc4[nH]c(=O)n([C@H]5CC[C@H](O)CC5)c4c3)n2)c1` [Example 156, 2-({4-cyclopropyl-6-[3-(trans-4-hydroxycyclohexyl)-2oxo-2,3-dihydro-1H-benzimidazol-5-yl]pyridin-2-yl}amino)pyridine-4-carbonitrile hydrochloride], under 5 nM. The result for `N#Cc1ccnc(Nc2cc(C3CC3)cc(-c3ccc4ccnc(N5CC[C@@H](F)C5)c4c3)n2)c1` [Example 168, 2-[(4-cyclopropyl-6-{1-[(3R)-3-fluoropyrrolidin-1-yl]isoquinolin-7-yl}-pyridin-2-yl)amino]pyridine-4-carbonitrile hydrochloride] reads 50 to 500 nM; that for `N#Cc1ccnc(Nc2cc(C3CC3)cc(-c3ccc(N4CCC(F)CC4)nc3)n2)c1` [Example 30, 2-{[4-cyclopropyl-6′-(4-fluoropiperidin-1-yl)-2,3′-bipyridin-6-yl]amino}pyridine-4-carbonitrile hydrochloride], 50 to 500 nM.
